Consider ten sequences from patent publication US8852604B2, “Multiepitope vaccine for Her2/neu-associated cancers” (Pevion Biotech AG, priority 2009, dated 2014).

Read-outs that look alike come from different tables or passages of the source. No end group written: not given here. Bounds are passed on as bounds.

The text on data set [1]:
The polydispersity of a virosomal preparation is an indication for the homogeneity of the particle size in an aqueous solution, with lower polydispersity being associated with a greater degree of homogeneity of size over all virosomes present in the composition.

A short description of data set [2]: physchem.
Data set [3] can be described thus: physchem. The source holds these as a separate data set.

Take PESFDGDPASNTAPLQPGGGGGC [PEV601]: the “Stabilty(I)IRIV” value in data set [1] was “acceptable”. In “physchem [2]”, this sequence showed a solubility of 2000 to 3000 µg/mL.
Turning to “PESFDGDPASNTAPLQPRVLQGLPREYVNARHSLPYMPIWKFPDEEGAC [PEV604]”, the “Stabilty(I)IRIV” value in data set [1] is “limited”. The solubility in the data set “physchem [3]” was 500 to 1500 µg/mL; in the data set “physchem [2]” it was 800 µg/mL.
On to “PESFDGDPASNTAPLQPRVLQGLPREYVNARHSYMPIWKFPDEEGAC [PEV605, PESFDGDPASNTAPLQP RVLQGLPREYVNARHS YMPIWKFPDEEGAC]”, for which, in data set [1], the “Stabilty(I)IRIV” value is “limited”. In “physchem [2]”, this sequence showed a solubility of 800 µg/mL.
As for “PESFDGDPASNTAPLQPYMPIWKFPDEEGASRVLQGLPREYVNARHC [PEV606, PESFDGDPASNTAPLQP YMPIWKFPDEEGAS RVLQGLPREYVNARHC]”, the “Stabilty(I)IRIV” value in data set [1] was “limited”. Besides, the concentration in solution in the data set “physchem [2]” (solubility) was 800 µg/mL.
Consider “RVLQGLPREYVNARHC [PEV602, RVLQGLPREYVNARHC]”, for which the “Stabilty(I)IRIV” value in data set [1] is on record as “limited”. For the same sequence, the solubility in “physchem [2]” was found to be 500 µg/mL.
“RVLQGLPREYVNARHSPESFDGDPASNTAPLQPYMPIWKFPDEEGAC [PEV607, RVLQGLPREYVNARHS PESFDGDPASNTAPLQP YMPIWKFPDEEGAC]”: the “Stabilty(I)IRIV” value in data set [1] is “limited”. Further, the solubility in “physchem [3]” is 500 to 1500 µg/mL; in the data set “physchem [2]”, 800 µg/mL.
In the case of “RVLQGLPREYVNARHSYMPIWKFPDEEGASPESFDGDPASNTAPLQPC [PEV608, RVLQGLPREYVNARHS YMPIWKFPDEEGAS PESFDGDPASNTAPLQPC]”, the “Stabilty(I)IRIV” value in data set [1] is on record as “limited”. For the same sequence, the concentration in solution in “physchem [2]” (solubility) was 800 µg/mL.
Regarding YMPIWKFPDEEGAC [PEV603, YMPIWKFPDEEGAC], the “Stabilty(I)IRIV” value in data set [1] is listed as “limited”. In addition, the solubility in the data set “physchem [3]” is 2000 to 3000 µg/mL; in the data set “physchem [2]”, less than 200 µg/mL.
As to “YMPIWKFPDEEGASPESFDGDPASNTAPLQPRVLQGLPREYVNARHC [PEV609, YMPIWKFPDEEGAS PESFDGDPASNTAPLQP RVLQGLPREYVNARHC]”, the “Stabilty(I)IRIV” value in data set [1] is listed as “limited”. The solubility in the data set “physchem [2]” worked out at 800 µg/mL.
In the same order, the values of “YMPIWKFPDEEGASRVLQGLPREYVNARHSPESFDGDPASNTAPLQPC [PEV610, YMPIWKFPDEEGAS RVLQGLPREYVNARHS PESFDGDPASNTAPLQPC]” are “limited” and 800 µg/mL.

For orientation: solubility means the dissolved amount per volume that the medium holds. Read a low solubility as little dissolved substance.
